From patent US9725469B2, “Amino-oxazine and amino-dihydrothiazine compounds as beta-secretase modulators and methods of use” (Amgen Inc., priority 2012, dated 2017)

How the values were obtained:
[1] = target: BACE 1 (beta secretase enzyme) (Homo sapiens, UniProt P56817); assay: In vitro enzymatic BACE FRET assay; assay type: biochemical; settings: average IC50, pH 4.2
Description: In Vitro Enzymatic BACE FRET (Fluorescence Resonance Energy Transfer) Assay
The assay buffer used in this screen is 0.05 M acetate, pH 4.2, 10% DMSO final, 100 uM genapol (which is a nonionic detergent, below its Critical Micelle Concentration). The beta secretase enzyme (0.2 nM) is pre-incubated for one hour with inhibitors, typically in about 1 uL of DMSO according to a serial dilution, are added thereto. This assay is effectively started by the addition of FRET substrate (50 nM) and the combination is incubated for one hour. The FRET assay is terminated with by addition of Tris buffer, which raises the pH to neutrality, and the fluorescence is determined. The FRET substrate is a peptide with commercially available fluorophore and quencher, on opposite sides of the BACE cleavage site. Proteolytic cleavage of the FRET substrate releases quenching of fluorescence (excitation […] and […]).

[2] = tested on: Aβ40 in conditioned medium of cells stably expressing Amyloid Precursor Protein (APP); assay: In vitro BACE cell-based assay (HEK cell assay, Aβ40 sandwich ELISA); settings: Homo sapiens, HEK293; average IC50, Aβ40, 24 h incubation
Description: In Vitro BACE Cell-Based Assay
The cell-based assay measures inhibition or reduction of Aβ40 in conditioned medium of test compound treated cells expressing amyloid precursor protein.
Cells stably expressing Amyloid Precursor Protein (APP) were plated at a density of 40K cells/well in 96 well plates (Costar). The cells were cultivated for 24 hours at 37° C. and 5% CO2 in DMEM supplemented with 10% FBS. The test compounds were then added to cells in 10-point dose response concentrations with the starting concentration being either 100 μM or 10 μM. The compounds were diluted from stock solutions in DMSO and the final DMSO concentration of the test compounds on cells was 0.1%. After 24 h of incubation with the test compounds the supernatant conditioned media was collected and the Aβ 40 levels were determined using a sandwich ELISA. The IC50 of the compound was calculated from the percent of control or percent inhibition of Aβ 40 as a function of the concentration of the test compound.
The sandwich ELISA to detect Aβ 40 was performed in 96 well microtiter plates, which were pre-treated with goat anti-rabbit IgG (Pierce). The capture and detecting antibody pair that were used to detect Aβ 40 from cell supernatants were affinity purified pAb40 (Biosource) and biotinylated 6E10 (Signet Labs Inc.), respectively. The optimal concentration for the pAb40 antibody was 3 μg/ml in Superblock/TBS (Pierce) that was supplemented with 0.05% Tween 20 (Sigma). Optimal concentration for the detection antibody 6E10-biotinylated was 0.5 μg/ml in Superblock/TBS (Pierce) that had been supplemented with 2% normal goat serum and 2% normal mouse serum.
Cellular supernatants were incubated with the capture antibody for 3 h at 4° C., followed by 3 wash steps in TBS-tween (0.05%). The detecting antibody incubation was for 2 h at 4° C., again followed by the wash steps as described previously. The final readout of the ELISA is Time-Resolved Fluorescence (counts per minute) using Delfia reagents Streptavidin-Europium and Enhancement solutions (Perkin Elmer) and the Victor 2 multilabel counter (Perkin Elmer).

Cathepsin D = target: T1, Cathepsin D (Homo sapiens, UniProt P07339); assay: In vitro enzymatic Cat D (Cathepsin D) FRET assay; assay type: biochemical; settings: average IC50, pH 3.5
T1 construct: made in house; host or cells: CHO cells
T1 sequence (P07339 65-412, species assumed): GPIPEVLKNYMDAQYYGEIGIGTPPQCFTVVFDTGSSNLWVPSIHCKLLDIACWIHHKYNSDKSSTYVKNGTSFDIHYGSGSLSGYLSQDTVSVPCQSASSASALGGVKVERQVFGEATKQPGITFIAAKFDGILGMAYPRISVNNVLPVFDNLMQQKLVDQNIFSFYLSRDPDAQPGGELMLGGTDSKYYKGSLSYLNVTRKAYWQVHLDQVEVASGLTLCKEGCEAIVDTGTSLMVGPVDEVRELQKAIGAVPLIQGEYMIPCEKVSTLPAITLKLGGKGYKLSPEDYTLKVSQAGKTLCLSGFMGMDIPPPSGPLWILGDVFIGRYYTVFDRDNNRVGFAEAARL
Description: In Vitro Enzymatic Cat D (Cathepsin D) FRET (Fluorescence Resonance Energy Transfer) Assay
Recombinant CathepsinD was expressed in CHO cells. The assay buffer for CathepsinD is 0.05 M citrate pH 3.5, 10% DMSO final, 5 mM CHAPS. The CathepsinD enzyme (9 nM) is pre-incubated for one hour with inhibitors, typically in about 1 uL of DMSO according to a serial dilution, is added thereto. The assays are effectively started by the addition of different FRET substrates (20 nM for CathepsinD) and the combination is incubated for one hour. The FRET assay is terminated with by addition of Tris buffer, which raises the pH to neutrality, and the fluorescence is determined. The FRET substrate is a peptide with commercially available fluorophore and quencher, on opposite sides of the BACE cleavage site. The CathepsinD substrate peptide sequence is based on sequence #1 of Table 1 from Gulnik et al. FEBS Letters v413 p 379-384 1997. Proteolytic cleavage of the FRET substrate releases quenching of fluorescence (CathepsinD excitation 500 nm and emission 580 nm). […]

Abeta 40 = assay: In vivo inhibition of beta-secretase: Abeta 40 reduction in rat CSF and brain; settings: after 4 hrs; for % reduction of rat CSF Abeta 40 levels at 10 mpk: Abeta 40, rat CSF; for % reduction of rat brain levels at 10 mpk: Abeta 40, rat brain
Text: In Vivo Inhibition of Beta-Secretase
Several animal models, including mouse, rat, dog, and monkey, may be used to screen for inhibition of beta-secretase activity in vivo following administration of a test compound sample. Animals used in this invention can be wild type, transgenic, or gene knockout animals. For example, the Tg2576 mouse model, prepared and conducted as described in Hsiao et al., 1996, Science 274, 99-102, and other non-transgenic or gene knockout animals are useful to analyze in vivo inhibition of Amyloid beta peptide (Abeta) production in the presence of inhibitory test compounds. Generally, 2 to 18 month old Tg2576 mice, gene knockout mice or non-transgenic animals are administered test compounds formulated in vehicles, such as cyclodextran, phosphate buffers, hydroxypropyl methylcellulose or other suitable vehicles. One to twenty-four hours following the administration of compound, animals are sacrificed, and brains as well as cerebrospinal fluid (CSF) and plasma are removed for analysis of A-beta levels and drug or test compound concentrations (Dovey et al., 2001, Journal of Neurochemistry, 76, 173-181) Beginning at time 0, animals are administered by oral gavage, or other means of delivery such as intravenous injection, an inhibitory test compound of up to 100 mg/kg in a standard, conventional formulation, such as 2% hydroxypropyl methylcellulose, 1% Tween80. A separate group of animals receive 2% hydroxypropyl methylcellulose, 1% Tween80 alone, containing no test compound, and serve as a vehicle-control group. At the end of the test period, animals are sacrificed and brain tissues, plasma or cerebrospinal fluid are collected. Brains are either homogenized in 10 volumes (w/v) of 0.2% diethylamine (DEA) in 50 mM NaCl (Best et al., 2005, Journal of Pharmacology and Experimental Therapeutics, 313, 902-908), or in 10 volumes of 0.5% TritonX-100 in Tris-buffered saline (pH at about 7.6). Homogenates are centrifuged at 355,000 g, 4° C. for 30 minutes. CSF or brain supernatants are then analyzed for the presence of A-beta peptide by specific sandwich ELISA assays based on ECL (Electrochemiluminescence) technology. For example, rat Abeta40 is measured using biotinylated-4G8 (Signet) as a capture antibody and Fab40 (an in-house antibody specific to the C-terminal of Abeta40) as a detection antibody. For example, 4 hours after administration of 30 mg/kg oral dose of the test compound in 2% hydroxypropyl methylcellulose, 1% Tween80 (pH2.2) to 200 g male Sprague Dawley rats, amyloid beta peptide levels are measured for reduction by X % and Y % in cerebrospinal fluid and brain, respectively, when compared to the levels measured in the vehicle-treated rats.
Actual vehicles used: Oral: 2% HPMC, 1% Tween80, pH 2.2
The compounds of the invention may be shown to reduce the formation and/or deposition of amyloid beta peptide in the cerebrospinal fluid (CSF) as well as in the brain of a mouse or rat at either 3 mpk, 10 mpk or 30 mpk (mpk=mg compound per kg weight of the animal) dosing concentrations after 4 hrs.

[3] = tested on: pigment epithelium of the rat's eye; settings: higher compound dose given for three months; cited from earlier work
[4] = people of the terminated Ph I dosing trial; cited from earlier work
beta amyloid = settings: patients in early stages of Alzheimer's Disease; cited from earlier work

Chain of BACE 1 (beta secretase enzyme) (P56817 46-501): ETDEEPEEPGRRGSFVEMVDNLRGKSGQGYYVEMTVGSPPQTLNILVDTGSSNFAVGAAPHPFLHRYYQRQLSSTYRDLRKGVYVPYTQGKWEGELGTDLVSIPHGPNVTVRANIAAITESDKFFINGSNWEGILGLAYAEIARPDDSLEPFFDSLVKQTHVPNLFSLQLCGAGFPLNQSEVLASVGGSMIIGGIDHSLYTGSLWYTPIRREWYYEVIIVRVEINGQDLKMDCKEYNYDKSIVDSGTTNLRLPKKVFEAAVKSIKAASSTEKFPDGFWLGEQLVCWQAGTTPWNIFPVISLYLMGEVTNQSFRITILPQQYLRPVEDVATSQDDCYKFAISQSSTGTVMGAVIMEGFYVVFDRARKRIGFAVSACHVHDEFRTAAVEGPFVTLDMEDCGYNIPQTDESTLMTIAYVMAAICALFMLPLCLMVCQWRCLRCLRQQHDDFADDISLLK

Molecule | IC50 [1] | IC50 [2] | IC50 (Cathepsin D) | % reduction of rat CSF Abeta 40 levels at 10 mpk (Abeta 40) | % reduction of rat brain levels at 10 mpk (Abeta 40) | eye toxicity finding in rat [3] | eye assessments in people [4] | slowing of the rate of cognitive decline and memory loss (beta amyloid)
C=C(C)c1cc2c(cn1)Oc1ccc(Nc3nccc4cc(OC)cnc34)cc1[C@@]21CCOC(N)=N1 [Example 37, (5S)-N~7~-(3-methoxy-1,7-naphthyridin-8-yl)-3-(1-methylethenyl)-5′,6′-dihydrospiro[chromeno[2,3-c]pyridine-5,4′-[l,3]oxazine]-2′,7-diamine] | 17.8 nM | 3.8 nM | 546000 nM | 38% | 32% | – | – | –
COc1cnc2c(Nc3ccc4c(c3)[C@@]3(CCOC(N)=N3)c3cc(C5CC5)ncc3O4)nccc2c1 [Example 38] | 17.9 nM | 2 nM | 400000 nM | 39% | 25% | – | – | –
C[C@@]1(c2cc(-c3cncnc3)c(F)cc2F)CCSC(N)=N1 [LY 2811376] | – | – | – | – | – | damaged the pigment epithelium of the rat's eye | did not show any abnormalities | –
Solanezumab: a monoclonal antibody which targets and binds to the central region of beta amyloid; Phase III clinical molecule | – | – | – | – | – | – | – | approximately 30%
